What was measured:
in vivo = conditions: rat, in vivo, po, 20 mg/kg; for AUC(0-inf): AUC0-∞; for MRT last: MRT0-t; for MRT inf: MRT 0-∞; for half-life: t1/2z
Description: The pharmacokinetic study was described as follows.
The UHPLC-TQ-MS analysis was conducted on an LC-30 AD ultra high-performance liquid chromatograph (Shimadzu, Japan) connected to an AB 4500 (AB Sciex, United States) Triple Quadrupole Mass Spectrometer with an ESI source. Chromatographic separation was achieved on an Acquity UHPLC HSS T3 column (100 × 2.1 mm, 1.8 μm) at 40 °C, and the eluent was aqueous formic acid (100:0.1, v/v) (A) and acetonitrile with formic acid (100:0.1, v/v) (B) at a flow rate of 0.3 mL min^−1. Gradient elution differs in the calculation of residual content and pharmacokinetic experiments. MRM mode was employed. Data processing was performed using Analyst Software (AB Sciex). The UHPLC-TQ-MS method validation was conducted in terms of selectivity, linearity, carryover, accuracy and precision, matrix effect, extraction recovery, dilution integrity, and stability under various conditions, which was performed in line with the FDA guidelines for bioanalytical assays. More details were described in the Supplementary material method.
The comparisons of the relative abundance of the genera between different groups were performed using the Wilcoxon rank-sum test. Comparisons between WKY and SHRs before and after CRO treatment were conducted using either a t-test or one-way ANOVA, with p values < 0.05 considered statistically significant. […] Graphs were created using GraphPad Prism 8.0 software.
For the determination of drug remaining contents in the supernatant, the gradient elution was as follows: 0.1–0.5 min at 45% B; 0.5–1.0 min at 45–65% B; 1.5–4.0 min at 65–85% B; 4.0–4.5 min at 85% B; 4.5–4.6 min at 85%–45% B; 4.6–5.0 min at 45% B. For pharmacokinetics, the gradient elution was performed as follows: 0–0.5 min at 30% B; 0.5–1.5 min at 30–45% B; 1.5–5.0 min at 45–60% B; 5.0–7.0 min at 60–80% B; 7.0–8.0 min at 80% B; 8.1–10.0 min at 30% B. The injection volume was 5 μ L. The multiple reaction monitoring (MRM) mode was used to detect analytes and IS in the positive ion mode. The mass spectrometry parameters were set as follows: ion spray voltage was 5500 V, turbo spray temperature (TEM) of 550℃; nebulizer gas (gas 1) of 50 psi; heater gas (gas 2) of 50 psi and curtain gas of 40 psi. Nitrogen was kept as the nebulizer and auxiliary gas.

gut microbiota from SHRs = test: Anaerobic incubation of drug with fecal gut microbiota from SHRs; assay type: in vitro ADME, rat; conditions: for Qualitative analysis: metabolism to other compounds: SHR gut microbiota in vitro, UHPLC-Q-TOF-MS; for Remaining content: SHR gut microbiota, 40 μM drug, anaerobic 37 °C, mGAM
Description: Fresh fecal samples from WKYs and SHRs were collected and immediately transferred to an anaerobic chamber (90% N₂, 5% CO₂, 5% H₂). Fecal suspensions were prepared by homogenizing 1 g of feces in 15 mL of sterile phosphate-buffered saline containing 0.1% L-cysteine. […] Bacteria-free controls contained equivalent drug volumes consistently. […] Drug remaining content and non-target metabolites screen were detected by ultra-high performance liquid chromatography coupled with triple quadrupole mass spectrometry (UHPLC-TQ-MS) and ultra-high performance liquid chromatography with quadrupole time-of-flight mass spectrometry (UHPLC-Q-TOF-MS), respectively. The sample preparation process can be found in the Supplementary material. For UHPLC-Q-TOF-MS analysis, the MS parameters and IDA criteria can be seen in Supplementary Table S1.
The sample processing procedures were tailored to align with the experimental objectives. For qualitative metabolite profiling, supernatants from the co-incubation of bacteria and drugs were collected at designated time points, filtered using a 0.22 μm membrane, lyophilized, and reconstituted in 200 μL of methanol. After vortexing and centrifuging for 10 minutes at 4°C and 12,000 rpm, the supernatant was transferred to an LC vial, and 5 μL aliquot was injected into the UHPLC-Q-TOF-MS/MS. For quantitative analysis, 100 μL aliquots were taken from the co-incubation supernatant and spiked with 1,000 μL of methanol containing 500 ng/mL of irbesartan. Following one minute of vortexing and centrifugation at 12,000 rpm for 10 minutes, the resulting supernatant was transferred to an LC vial, and a 5μL aliquot was injected into the UHPLC-TQ-MS/MS.

human intestinal flora = system: human intestinal flora; design: method as in Zimmermann et al., 2019; conditions: in vitro; fecal samples from healthy individuals; ref Zimmermann et al., 2019; cited from earlier work
[1] = after administration; ref Zhou et al., 2009; Mukai et al., 2015; cited from earlier work

Row | SMILES | Decrease of AUC0-∞ (in vivo; SHR compared with WKY) | MRT0-t (in vivo; SHR) | MRT 0-∞ (in vivo; SHR) | t1/2z (in vivo; SHR) | Cmax (in vivo; SHR, Cmax) | MRT last (in vivo; SHR) | MRT inf (in vivo; SHR) | Tmax (in vivo; SHR, Tmax) | half-life (in vivo; SHR) | Cmax (in vivo; WKY) | MRT0-t (in vivo; WKY) | AUC(0-t) (in vivo; WKY, AUC0-t) | AUC(0-inf) (in vivo; WKY) | MRT last (in vivo; WKY) | Qualitative analysis: metabolism to other compounds (gut microbiota from SHRs) | Remaining content (gut microbiota from SHRs; 0 h) | Remaining content (gut microbiota from SHRs; 12 h) | Remaining content (gut microbiota from SHRs; 24 h) | Remaining content (gut microbiota from SHRs; 48 h) | further results
1 | CCCCc1nc(Cl)c(C(=O)O)n1Cc1ccc(-c2ccccc2-c2nnn[nH]2)cc1 [E-3174] | 72.42% | 11.21 ± 0.73 h | 21.63 ± 10.07 h | 9.10 ± 8.85 h | 1800 ± 1110 ng/mL | 8.84 ± 1.59 h | 15.1 ± 8.39 h | 4.75 ± 2.56 h | 10.1 ± 5.59 h | 6985.09 ± 6023.88 ng/mL | 12.64 ± 1.23 h | 65000 ± 44100 ng·h/mL | 78300 ± 41100 ng·h/mL | 8.39 ± 2 h | neither losartan nor E-3174 was metabolized to other compounds | 38.21 ± 0.11 µM | 39.55 ± 2.13 µM | 35.95 ± 1.41 µM | 27.07 ± 6.32 µM | Tmax (in vivo; SHR): 7.00 ± 1.67 h; AUC(0-t) (in vivo; SHR, AUC0-t): 17600 ± 4270 ng·h/mL; AUC(0-inf) (in vivo; SHR): 21600 ± 3070 ng·h/mL
2 | CCCCc1nc(Cl)c(CO)n1Cc1ccc(-c2ccccc2-c2nn[nH]n2)cc1 [Losartan, Losartan potassium] | 50.24% | 7.64 ± 1.16 h | 12.00 ± 2.70 h | 6.04 ± 2.28 h | 4000 ± 1770 ng/mL | 6.79 ± 1.38 h | 9.65 ± 3.34 h | 0.25 h | 5.91 ± 3.72 h | 9331.32 ± 7242.24 ng/mL | 9.99 ± 0.84 h | 29900 ± 15400 ng·h/mL | 39200 ± 20400 ng·h/mL | 5.89 ± 2.1 h | neither losartan nor E-3174 was metabolized to other compounds | 37.62 ± 1.03 µM | 38.41 ± 2.14 µM | 33.51 ± 2.35 µM | 32.98 ± 2.19 µM | Decline of AUC0-t (in vivo; SHR compared with WKY): 39.88%; AUC0-∞ (in vivo; SHR): 19483.83 ± 4098.26 ng·h/mL; AUC(0-t) (in vivo; SHR): 18002.60 ± 2806.38 ng·h/mL; MRT 0-∞ (in vivo; WKY): 23.65 ± 16.03 h; t1/2z (in vivo; WKY): 13.67 ± 13.15 h; MRT inf (in vivo; WKY): 16.7 ± 19.2 h; half-life (in vivo; WKY): 13.6 ± 14.3 h; Degradation on exposure to fecal samples (human intestinal flora): approximately 20%; Excreted in feces [1]: ~60%; Excreted in urine [1]: approximately 35%
